# System: MV4:11 human cancer cell lines
# Assay: Cellular viability / anti-proliferative activity, CellTiter-Glo, 5 day protocol
# Assay type: cell-based
# Settings: Homo sapiens, MV4-11, 120 h, MV4:11 cells; 5 day incubation; CellTiter-Glo; mean of minimum two replicates; read-out: GI50 on cellular proliferation of MV4:11 human cancer cell lines
# Procedure, shortened: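 Compounds were tested over 22 two-fold dilutions starting at 30 μM in 0.3% DMSO, with 200 cells per well (7200 cells/mL). Viability was measured by CellTiter-Glo luminescence at day 5.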
row,SMILES,GI50 [nM]
1,"COc1ccnc(CN2CCc3c(cc(CN4CCN(C5CC5)C4=N)cc3-c3cn(C)nc3C)C2=O)c1 [Example 46, 7-((3-Cyclopropyl-2-iminoimidazolidin-1-yl)methyl)-5-(1,3-dimethyl-1H-pyrazol-4-yl)-2-((4-methoxypyridin-2-yl)methyl)-3,4-dihydroisoquinolin-1(2H)-one]",449
2,"COc1cc(CN2CCCc3c(cc(Cn4ccnc4C)cc3-c3ccc(F)cc3C)C2=O)cc(OC)c1 [Example 141, 2-(3,5-dimethoxybenzyl)-6-(4-fluoro-2-methylphenyl)-8-((2-methyl-1H-imidazol-1-yl)methyl)-2,3,4,5-tetrahydro-1H-benzo[c]azepin-1-one]",> 938
3,"Cc1cc(C)nc([C@H](C)N2CCc3c(cc(Cn4ccnc4C)cc3-c3cn(C)nc3C(F)(F)F)C2=O)c1 [Example 165, (S)-2-(1-(4,6-Dimethylpyridin-2-yl)ethyl)-7-((2-methyl-1H-imidazol-1-yl)methyl)-5-(1-methyl-3-(trifluoromethyl)-1H-pyrazol-4-yl)-3,4-dihydroisoquinolin-1(2H)-one]",< 50
4,"CCn1cc(-c2cc(CN3CCOC3=N)cc3c2CCN(Cc2cc(C)nn2C)C3=O)c(C(F)(F)F)n1 [Example 95, 2-((1,3-Dimethyl-1H-pyrazol-5-yl)methyl)-5-(1-ethyl-3-(trifluoromethyl)-1H-pyrazol-4-yl)-7-((2-iminooxazolidin-3-yl)methyl)-3,4-dihydroisoquinolin-1(2H)-one]",197
5,"Cc1ccnc(CN2CCc3c(cc(Cn4ccoc4=N)cc3-c3cn(C)nc3C(F)(F)F)C2=O)c1 [Example 88, 7-((2-Iminooxazol-3(2H)-yl)methyl)-5-(1-methyl-3-(trifluoromethyl)-1H-pyrazol-4-yl)-2-((4-methylpyridin-2-yl)methyl)-3,4-dihydroisoquinolin-1(2H)-one]",< 50
6,"Cc1cc(CN2CCc3c(cc(Cn4ccnc4C)cc3-c3ccccc3)C2=O)ccc1Cl [Example 5, 2-(4-Chloro-3-methylbenzyl)-7-((2-methyl-1H-imidazol-1-yl)methyl)-5-phenyl-3,4-dihydroisoquinolin-1(2H)-one]",> 938
7,"CCn1cc(-c2cc(Cn3ccn(C)c3=N)cc3c2CCN(Cc2cc(OC)ccn2)C3=O)cn1 [Example 49, 5-(1-Ethyl-1H-pyrazol-4-yl)-7-((2-imino-3-methyl-2,3-dihydro-1H-imidazol-1-yl)methyl)-2-((4-methoxypyridin-2-yl)methyl)-3,4-dihydroisoquinolin-1(2H)-one]",906
8,"Cc1nnc(CN2CCc3c(cc(Cn4ccnc4C)cc3-c3cn(C)nc3C(F)(F)F)C2=O)o1 [Example 188, 2-((5-Methyl-1,3,4-oxadiazol-2-yl)methyl)-7-((2-methyl-1H-imidazol-1-yl)methyl)-5-(1-methyl-3-(trifluoromethyl)-1H-pyrazol-4-yl)-3,4-dihydroisoquinolin-1(2H)-one]",730
9,"Cc1cc([C@H](C)N2CCc3c(cc(Cn4ccnc4C)cc3-c3cn(C)nc3C(F)(F)F)C2=O)ncc1F [Example 163, (S)-2-(1-(5-fluoro-4-methylpyridin-2-yl)ethyl)-7-((2-methyl-1H-imidazol-1-yl)methyl)-5-(1-methyl-3-(trifluoromethyl)-1H-pyrazol-4-yl)-3,4-dihydroisoquinolin-1(2H)-one]",< 50
10,"COc1ccnc(CN2CCc3c(cc(Cn4ccn(C)c4=N)cc3-c3cccnc3C)C2=O)c1 [Example 60, 7-((2-Imino-3-methyl-2,3-dihydro-1H-imidazol-1-yl)methyl)-2-((4-methoxypyridin-2-yl)methyl)-5-(2-methylpyridin-3-yl)-3,4-dihydroisoquinolin-1(2H)-one]",> 938
11,"Cc1ccnc(CN2CCc3c(cc(CN4CCCC4=N)cc3-c3cn(C)nc3C(F)(F)F)C2=O)c1 [Example 112, 7-((2-Iminopyrrolidin-1-yl)methyl)-5-(1-methyl-3-(trifluoromethyl)-1H-pyrazol-4-yl)-2-((4-methylpyridin-2-yl)methyl)-3,4-dihydroisoquinolin-1(2H)-one]",160
12,"COc1cc(CN2CCCc3c(cc(Cn4ccn(C)c4=N)cc3-c3ccc(F)cc3C)C2=O)cc(OC)c1 [Example 140, 2-(3,5-Dimethoxybenzyl)-6-(4-fluoro-2-methylphenyl)-8-((2-imino-3-methyl-2,3-dihydro-1H-imidazol-1-yl)methyl)-2,3,4,5-tetrahydro-1H-benzo[c]azepin-1-one]",200
13,"COc1cc(CN2CCc3c(cc(Cn4ccnc4C4CC4)cc3-c3ccc(F)cc3C)C2=O)cc(OC)c1 [Example 16, 7-((2-Cyclopropyl-1H-imidazol-1-yl)methyl)-2-(3,5-dimethoxybenzyl)-5-(4-fluoro-2-methylphenyl)-3,4-dihydroisoquinolin-1(2H)-one]",> 938
14,"COc1ccnc(CN2CCc3c(cc(Cn4ccnc4C)cc3-c3cc(F)cnc3C)C2=O)c1 [Example 229, 5-(5-Fluoro-2-methylpyridin-3-yl)-2-((4-methoxypyridin-2-yl)methyl)-7-((2-methyl-1H-imidazol-1-yl)methyl)-3,4-dihydroisoquinolin-1(2H)-one]",1050
15,"COc1cc(CN2CCc3c(cc(Cn4ccoc4=N)cc3-c3ccc(F)cc3C)C2=O)cc(OC)c1 [Example 81, 2-(3,5-Dimethoxybenzyl)-5-(4-fluoro-2-methylphenyl)-7-((2-iminooxazol-3(2H)-yl)methyl)-3,4-dihydroisoquinolin-1(2H)-one]",155
16,"COc1ccnc(CN2CCc3c(cc(Cn4cc(F)sc4=N)cc3-c3cn(C)nc3C(F)(F)F)C2=O)c1 [Example 103, 7-((5-Fluoro-2-iminothiazol-3(2H)-yl)methyl)-2-((4-methoxypyridin-2-yl)methyl)-5-(1-methyl-3-(trifluoromethyl)-1H-pyrazol-4-yl)-3,4-dihydroisoquinolin-1(2H)-one]",> 938
17,"Cc1nccn1Cc1cc2c(c(-c3cn(C)nc3C(F)(F)F)c1)CCN(Cc1cc(C3CC3)nn1C)C2=O [Example 148, 2-((3-Cyclopropyl-1-methyl-1H-pyrazol-5-yl)methyl)-7-((2-methyl-1H-imidazol-1-yl)methyl)-5-(1-methyl-3-(trifluoromethyl)-1H-pyrazol-4-yl)-3,4-dihydroisoquinolin-1(2H)-one]",< 50
18,COc1ccnc(CN2CCc3c(cc(Cn4ccn(C5CC5)c4=N)cc3-c3cn(C)nc3C)C2=O)c1 [Example 48],423
19,"COc1ccnc(CN2CCc3c(cc(Cn4ccn(C)c4=N)cc3-c3cn(C)nc3C(F)(F)F)C2=O)c1 [Example 41, 7-((2-Imino-3-methyl-2,3-dihydro-1H-imidazol-1-yl)methyl)-2-((4-methoxypyridin-2-yl)methyl)-5-(1-methyl-3-(trifluoromethyl)-1H-pyrazol-4-yl)-3,4-dihydroisoquinolin-1(2H)-one]",64
20,"CCn1cc(-c2cc(CN3CCOC3=N)cc3c2CCN(Cc2cn(C)nc2C)C3=O)c(C(F)(F)F)n1 [Example 98, 2-((1,3-Dimethyl-1H-pyrazol-4-yl)methyl)-5-(1-ethyl-3-(trifluoromethyl)-1H-pyrazol-4-yl)-7-((2-iminooxazolidin-3-yl)methyl)-3,4-dihydroisoquinolin-1(2H)-one]",207
21,"COc1cc(CN2CCc3c(OCC4CC4)cc(Cn4ccn(C)c4=N)cc3C2=O)cc(OC)c1 [Example 75, 5-(Cyclopropylmethoxy)-2-(3,5-dimethoxybenzyl)-7-((2-imino-3-methyl-2,3-dihydro-1H-imidazol-1-yl)methyl)-3,4-dihydroisoquinolin-1(2H)-one]",> 938
22,"CCn1cc(-c2cc(CN3CCN(C)C3=N)cc3c2CCN(Cc2cc(OC)ccn2)C3=O)c(C(F)(F)F)n1 [Example 55, 5-(1-Ethyl-3-(trifluoromethyl)-1H-pyrazol-4-yl)-7-((2-imino-3-methylimidazolidin-1-yl)methyl)-2-((4-methoxypyridin-2-yl)methyl)-3,4-dihydroisoquinolin-1(2H)-one]",< 50
23,CCn1cc(-c2cc(Cn3ccnc3C#N)cc3c2CCN([C@@H](C)c2cc(OC)ccn2)C3=O)c(C(F)(F)F)n1 [Example 179],9640
24,"COc1cc(CN2CCc3c(cc(CN4CCOC4=N)cc3-c3cccnc3C(F)(F)F)C2=O)cc(OC)c1 [Example 82, 2-(3,5-Dimethoxybenzyl)-7-((2-iminooxazolidin-3-yl)methyl)-5-(2-(trifluoromethyl)pyridin-3-yl)-3,4-dihydroisoquinolin-1(2H)-one]",55
25,"CCc1cccc(CN2CCc3c(cc(Cn4ccnc4C)cc3-c3cn(C)nc3C(F)(F)F)C2=O)c1 [Example 210, 2-(3-Ethylbenzyl)-7-((2-methyl-1H-imidazol-1-yl)methyl)-5-(1-methyl-3-(trifluoromethyl)-1H-pyrazol-4-yl)-3,4-dihydroisoquinolin-1(2H)-one]",148
26,"Cc1cc([C@H](C)N2CCc3c(OCC4CC4)cc(Cn4ccn(C)c4=N)cc3C2=O)ccc1F [Example 78, (S)-5-(Cyclopropylmethoxy)-2-(1-(4-fluoro-3-methylphenyl)ethyl)-7-((2-imino-3-methyl-2,3-dihydro-1H-imidazol-1-yl)methyl)-3,4-dihydroisoquinolin-1(2H)-one]",> 938
27,"COc1cc(CN2CCc3c(cc(Cn4ccn(C)c4=N)cc3-c3cc(C)nc(C)c3)C2=O)cc(OC)c1 [Example 154, 2-(3,5-Dimethoxybenzyl)-5-(2,6-dimethylpyridin-4-yl)-7-((2-imino-3-methyl-2,3-dihydro-1H-imidazol-1-yl)methyl)-3,4-dihydroisoquinolin-1(2H)-one]",559

# Same assay, conditions: Homo sapiens, MV4-11, 120 h, read-out: GI50 on cellular proliferation of MV4:11 human cancer cell lines
row,SMILES,GI50 [nM]
1,"COc1ccnc([C@H](C2CC2)N2CCc3c(cc(Cn4ccnc4C)cc3-c3cn(C)nc3C(F)(F)F)C2=O)c1 [Example 251, (S)-2-(Cyclopropyl(4-methoxypyridin-2-yl)methyl)-7-((2-methyl-1H-imidazol-1-yl)methyl)-5-(1-methyl-3-(trifluoromethyl)-1H-pyrazol-4-yl)-3,4-dihydroisoquinolin-1(2H)-one]",< 50

# — patent US11999716B2, “WDR5 inhibitors and modulators” (priority 2018, dated 2024)
